Results taken from patent publication US9023789B2, “Amylin analogs and pharmaceutical compositions thereof” (Novo Nordisk A/S, priority 2012, dated 2015).
Numbered stars: 1 amine (or outer) side, 2 acyl side, 3 side chain; on linkers, the order of the positions; unused ones are H or OH. Bridge positions count the residues as written; N and C are the ends. Side chains are listed from the residue outwards. Peptide text beside a SMILES is read from it. * marks the point of attachment. C20 diacid = O=C(O)CCCCCCCCCCCCCCCCCCC(=O)*; γGlu = O=C(O)[C@H](CCC(=O)[*:2])N[*:1]; AEEA = NCCOCCOCC(=O)O

Assays:
[1] = molecular target: T1, human amylin receptor (membranes from Amylin 3(a)/CRE-luc cells) (Homo sapiens, UniProt O60896+P30988); test: ASSAY (V) binding to the human amylin receptor (SPA, 125I-rat amylin); details: for IC50: Table 4, read-out: hAmylin-R bind IC50;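 for all read-outs here: competition binding of cell membranes (35 ng/µL) mixed with SPA beads in 384-well plates at 40 µL total volume, read by scintillation counting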
T1 construct: expressed in transfected cells
T1 sequence (P30988 25-474): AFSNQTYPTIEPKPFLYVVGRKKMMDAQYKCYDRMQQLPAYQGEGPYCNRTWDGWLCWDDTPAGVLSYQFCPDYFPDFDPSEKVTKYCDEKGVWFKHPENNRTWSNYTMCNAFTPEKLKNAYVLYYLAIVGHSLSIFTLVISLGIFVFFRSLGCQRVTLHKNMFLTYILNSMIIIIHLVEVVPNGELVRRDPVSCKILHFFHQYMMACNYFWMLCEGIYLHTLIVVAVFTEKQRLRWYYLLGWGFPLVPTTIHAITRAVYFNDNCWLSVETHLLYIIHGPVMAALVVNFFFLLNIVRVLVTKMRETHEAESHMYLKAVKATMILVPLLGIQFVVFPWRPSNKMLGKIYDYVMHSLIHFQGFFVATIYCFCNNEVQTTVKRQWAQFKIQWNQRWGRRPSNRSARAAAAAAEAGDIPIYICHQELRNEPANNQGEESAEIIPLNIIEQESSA
T1 sequence (O60896 24-148 partner): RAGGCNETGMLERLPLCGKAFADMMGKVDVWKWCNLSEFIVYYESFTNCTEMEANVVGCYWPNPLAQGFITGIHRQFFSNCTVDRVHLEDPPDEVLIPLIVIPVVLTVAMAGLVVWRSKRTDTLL

[2] = molecular target: T2, human calcitonin receptor (Homo sapiens, UniProt P30988); test: ASSAY (VII) binding to the human calcitonin receptor (SPA, 125I-Calcitonin); details: read-out: hCTR bind IC50;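 note: cell membranes (35 ng/µL) combined with SPA beads in 40 µL of pH 7.4 Hepes buffer, 384-well format, signal counted on a TopCounter instrument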
T2 construct: expressed in transfected cells
T2 sequence (P30988 25-474): T1 sequence (P30988 25-474)

[3] = ASSAY (III) ThT fibrillation assay for physical stability; assay type: physicochemical
How it was run: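 Formulations with 1 μM ThT, pH adjusted as required, incubated at 37 °C with 960 rpm orbital shaking; fluorescence (ex 444/em 485 nm) read every 20 min. Fibrillation reported as mean ThT fluorescence ± SD of 4–8 replicates at time points; polypeptide concentration measured by reverse-phase HPLC before and after, post-centrifugation.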

[4] = molecular target: T3, human calcitonin (a) receptor in BHK570 cells (Homo sapiens, UniProt P30988); test: ASSAY (II)a functional assay, human calcitonin receptor (CRE luciferase); assay type: cell-based; details: read-out: hCTR funct. EC50
T3 construct: expressed in transfected cells
T3 sequence (P30988 25-474): T1 sequence (P30988 25-474)
How it was run: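 Cells were seeded and cultured overnight, then incubated with standard or sample for 3 h at 37° C in serum-containing medium at pH 7.4. The medium was then swapped for PBS, LucLite was added for 30 min at room temperature, and luminescence was recorded. Cells were BHK with CRE-luc and calcitonin receptor, ± RAMP-3.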

[5] = Table 5, selectivity, hCTR bind IC50 / hAmylin-R bind IC50
[6] = Table 5a, selectivity, hCTR bind IC50 / hAmylin-R bind IC50
[7] = Table 5b, selectivity, hCTR bind IC50 / hAmylin-R bind IC50
[8] = Table 5c, selectivity, hCTR bind IC50 / hAmylin-R bind IC50
[9] = Table 7, human binding selectivity, included for comparison
[10] = Table 7a (preferred compounds), human binding selectivity, included for comparison
[11] = ratio of human calcitonin receptor binding IC50 to human amylin receptor binding IC50

IC50 [1]	Ratio hCT/hAmylin binding [1, 5]	Ratio hCT/hAmylin binding [1, 6]	Ratio hCT/hAmylin binding [1, 7]	Ratio hCT/hAmylin binding [1, 8]	Ratio hCT/hAmylin binding [1, 9]	Ratio hCT/hAmylin binding [1, 10]	Ratio hCT/hAmylin binding [1, 11]	IC50 [2]	ThT pH 4.0 lag time (h) [3]	EC50 [4]	SMILES
0.396 nM	45.5	45.5	45.5	45.5	45.5	45.5	45.5	18 nM	45 h	0.542 nM	CC[C@H](C)[C@H](NC(=O)[C@H](C)NC(=O)CNC(=O)[C@H](Cc1ccccc1)NC(=O)[C@H](CC(N)=O)NC(=O)[C@@H]1CCCN1C(=O)[C@H](CO)NC(=O)[C@H](CO)NC(=O)[C@H](Cc1c[nH]cn1)NC(=O)[C@H](CCCNC(=N)N)NC(=O)[C@H](CC(C)C)NC(=O)[C@H](Cc1ccccc1)NC(=O)[C@H](Cc1c[nH]cn1)NC(=O)[C@H](C)NC(=O)[C@H](CC(C)C)NC(=O)[C@H](CCCNC(=N)N)NC(=O)[C@H](CCC(N)=O)NC(=O)[C@@H](NC(=O)[C@H](C)NC(=O)[C@@H]1CSSC[C@H](NC(=O)[C@@H](N)CCCCNC(=O)CC[C@H](NC(=O)CCCCCCCCCCCCCCCCCCC(=O)O)C(=O)O)C(=O)N[C@@H](CC(N)=O)C(=O)N[C@@H]([C@@H](C)O)C(=O)N[C@@H](C)C(=O)N[C@@H]([C@@H](C)O)C(=O)N1)[C@@H](C)O)C(=O)N1CCC[C@H]1C(=O)N[C@@H](CO)C(=O)N[C@@H](CO)C(=O)N[C@H](C(=O)N[C@@H](CC(N)=O)C(=O)N[C@H](C(=O)NCC(=O)N[C@@H](CO)C(=O)N[C@@H](Cc1c[nH]cn1)C(=O)N[C@H](C(=O)N[C@@H](Cc1ccc(O)cc1)C(N)=O)[C@@H](C)O)C(C)C)[C@@H](C)O [Example 66] (H-K([γGlu-C20 diacid])CNTATCATQRLAHFLRHSSPNFGAIPSSTNVGSHTY-NH2; disulfide 2-7; N-terminus assumed)
0.443 nM	69.7	69.7	69.7	69.7	69.7	69.7	69.7	30.9 nM	25 h	1.97 nM	CC[C@H](C)[C@H](NC(=O)[C@H](C)NC(=O)CNC(=O)[C@H](Cc1ccccc1)NC(=O)[C@H](CC(N)=O)NC(=O)[C@@H]1CCCN1C(=O)[C@H](CO)NC(=O)[C@H](CO)NC(=O)[C@H](Cc1c[nH]cn1)NC(=O)[C@H](CCCNC(=N)N)NC(=O)[C@H](CC(C)C)NC(=O)[C@H](Cc1ccccc1)NC(=O)[C@H](CC(N)=O)NC(=O)[C@H](C)NC(=O)[C@H](CC(C)C)NC(=O)[C@H](CCCNC(=N)N)NC(=O)[C@H](CCC(N)=O)NC(=O)[C@@H](NC(=O)[C@H](C)NC(=O)[C@@H]1CSSC[C@H](NC(=O)[C@@H](N)CCCCNC(=O)CC[C@H](NC(=O)CCCCCCCCCCCCCCCCCCC(=O)O)C(=O)O)C(=O)N[C@@H](CC(N)=O)C(=O)N[C@@H]([C@@H](C)O)C(=O)N[C@@H](C)C(=O)N[C@@H]([C@@H](C)O)C(=O)N1)[C@@H](C)O)C(=O)N1CCC[C@H]1C(=O)N[C@@H](CO)C(=O)N[C@@H](CO)C(=O)N[C@H](C(=O)N[C@@H](CC(N)=O)C(=O)N[C@H](C(=O)NCC(=O)N[C@@H](CO)C(=O)N[C@@H](CC(N)=O)C(=O)N[C@H](C(=O)N[C@@H](Cc1ccc(O)cc1)C(N)=O)[C@@H](C)O)C(C)C)[C@@H](C)O [Example 48]
0.602 nM	60.7	60.7	60.7	60.7	60.7	60.7	60.7	36.6 nM	13 h	8.17 nM	CC[C@H](C)[C@H](NC(=O)[C@H](C)NC(=O)CNC(=O)[C@H](Cc1ccccc1)NC(=O)[C@H](CC(N)=O)NC(=O)[C@@H]1CCCN1C(=O)[C@H](CO)NC(=O)[C@H](CO)NC(=O)[C@H](Cc1c[nH]cn1)NC(=O)[C@H](CCCNC(=N)N)NC(=O)[C@H](CC(C)C)NC(=O)[C@H](Cc1ccccc1)NC(=O)[C@H](CC(N)=O)NC(=O)[C@H](C)NC(=O)[C@H](CC(C)C)NC(=O)[C@H](CCCNC(=N)N)NC(=O)[C@H](CCC(N)=O)NC(=O)[C@@H](NC(=O)[C@H](C)NC(=O)[C@@H]1CSSC[C@H](NC(=O)[C@@H](N)CCCCNC(=O)COCCOCCNC(=O)CC[C@H](NC(=O)CCCCCCCCCCCCCCCCCCC(=O)O)C(=O)O)C(=O)N[C@@H](CC(N)=O)C(=O)N[C@@H]([C@@H](C)O)C(=O)N[C@@H](C)C(=O)N[C@@H]([C@@H](C)O)C(=O)N1)[C@@H](C)O)C(=O)N1CCC[C@H]1C(=O)N[C@@H](CO)C(=O)N[C@@H](CO)C(=O)N[C@H](C(=O)N[C@@H](CC(N)=O)C(=O)N[C@H](C(=O)NCC(=O)N[C@@H](CCCNC(=N)N)C(=O)N[C@@H](CC(N)=O)C(=O)N[C@H](C(=O)N[C@@H](Cc1ccc(O)cc1)C(N)=O)[C@@H](C)O)C(C)C)[C@@H](C)O [Example 78] (H-K([AEEA-γGlu-C20 diacid])CNTATCATQRLANFLRHSSPNFGAIPSSTNVGRNTY-NH2; disulfide 2-7 (inferred))

SMILES	IC50 [1]	Ratio hCT/hAmylin binding [1, 5]	Ratio hCT/hAmylin binding [1, 6]	Ratio hCT/hAmylin binding [1, 7]	Ratio hCT/hAmylin binding [1, 8]	Ratio hCT/hAmylin binding [1, 9]	Ratio hCT/hAmylin binding [1, 10]	Ratio hCT/hAmylin binding [1, 11]	IC50 [2]	ThT pH 4.0 lag time (h) [3]	EC50 [4]
CC[C@H](C)[C@H](NC(=O)[C@H](C)NC(=O)CNC(=O)[C@H](Cc1ccccc1)NC(=O)[C@H](CC(N)=O)NC(=O)[C@@H]1CCCN1C(=O)[C@H](CO)NC(=O)[C@H](CO)NC(=O)[C@H](Cc1c[nH]cn1)NC(=O)[C@H](CCCNC(=N)N)NC(=O)[C@H](CC(C)C)NC(=O)[C@H](Cc1ccccc1)NC(=O)[C@H](CC(N)=O)NC(=O)[C@H](C)NC(=O)[C@H](CC(C)C)NC(=O)[C@H](CCCNC(=N)N)NC(=O)[C@H](CCC(N)=O)NC(=O)[C@@H](NC(=O)[C@H](C)NC(=O)[C@@H]1CSSC[C@H](NC(=O)[C@@H](N)CCCCNC(=O)COCCOCCNC(=O)CC[C@H](NC(=O)CCCCCCCCCCCCCCCCCCC(=O)O)C(=O)O)C(=O)N[C@@H](CC(N)=O)C(=O)N[C@@H]([C@@H](C)O)C(=O)N[C@@H](C)C(=O)N[C@@H]([C@@H](C)O)C(=O)N1)[C@@H](C)O)C(=O)N1CCC[C@H]1C(=O)N[C@@H](CO)C(=O)N1CCC[C@H]1C(=O)N[C@H](C(=O)N1CCC[C@H]1C(=O)N[C@H](C(=O)NCC(=O)N[C@@H](CO)C(=O)N[C@@H](CC(N)=O)C(=O)N[C@H](C(=O)N[C@@H](Cc1ccc(O)cc1)C(N)=O)[C@@H](C)O)C(C)C)[C@@H](C)O [Example 54] (H-K([AEEA-γGlu-C20 diacid])CNTATCATQRLANFLRHSSPNFGAIPSPTPVGSNTY-NH2; disulfide 2-7; N-terminus assumed)	0.03 nM	146.1	146.1	146.1	146.1	146.1	146.1	146.1	4.38 nM	15 h	0.987 nM
